The subject of data set [1] is MDA-MB-231 tumors. The data set is described as follows: EC17 dose finding safety study, tumor-bearing mice. It is filed as in vivo, NSG mice. To be noted: for higher IFNγ production in mouse plasma vs CAR-T cells only: all EC17 regimens. As to the method:
All animal care and use were performed according to NIH guidelines and in compliance with protocols approved by the Purdue University Animal Use and Care Committee. Female 4 to 5-weeks-old NOD/SCID gamma (NSG™) mice (stock number: 005557) were purchased from The Jackson Laboratory (Bar Harbor, ME). Unless specifically indicated, all animals were maintained on a FA-deficient diet (TestDiet, St. Louis, MO) upon arrival and throughout the study. To establish subcutaneous xenografts, MDA-MB-231 and HOS-FRα were implanted in the right flank region at 2.5 × 10^6 and 1 × 10^6 cells per animal, respectively. For intravenous xenografts, THP1-FRβ cells were inoculated at 5 × 10^6 cells per animal. Subcutaneous tumors were measured 2–3 times per week with a caliper and calculated using the ellipsoidal formula (length x width^2)/2. […] All animal doses (CAR-T cells, EC17, sodium fluorescein) were given intravenously.
In a therapeutic setting, EC17 CAM can theoretically be given before or after CAR-T cell injection ([33]). For all intended purposes here, we administered the first dose of EC17 2–3.5 days after CAR-T cells to allow for an observation period of human T cells in tumor-bearing mice. Two batches of unsorted E2-CAR-T cells (23% or 39% EGFRt+, 1:1 CD4/CD8) were used for in vivo studies. On the day of infusion for each experiment (day 0), frozen CAR-T cells were quickly thawed at 37°C, washed 2x with Dulbecco's 1X PBS (pH 7.4) and injected into the tail veil at desired EGFRt+ E2-CAR-T cell doses. In addition, a small aliquot of CAR-T cells was analyzed by flow cytometry for CD4 to CD8 ratio and differentiation status of CAR-T cells. On the first day of EC17 dose, tumor-bearing animals were randomly assigned into groups according to their tumor sizes or the same number of days post intravenous implantation (i.e., THP1-FRβ).
For MDA-MB-231 studies, mice received a high dose (~10 million) of a “clinical facsimile” of E2-CAR-T cells (~39% EGFRt+) with a low differentiation profile. Two days later, we started them with 3 different treatment regimens of EC17 at an average tumor size of ~293 ± 39 mm^3. The EC17 dosing was given once-a-week (SIW) at 500 nmol/kg on Mondays, or as escalating doses of 5, 50, or 100, and 500 or 1,000 nmol/kg on Monday, Thursday, and Monday with a 6 day break in-between cycles. Control mice were left untreated (received CAR-T cells but no EC17). For comparison, a cohort of tumor-free littermates also received the same number of CAR-T cells without or with EC17 SIW at 500 nmol/kg. To study the effect of high dietary folate, two sets of NSG mice were placed on either a FA-replete diet (4 mg/kg, Envigo, Indianapolis, IN) or a FA-deficient diet (TestDiet, St. Louis, MO) upon arrival. On day 0, both sets of the mice received ~10 million of the same “clinical facsimile” CAR-T cells followed by no EC17 or EC17 SIW at 500 nmol/kg starting on day 3. On the first day of EC17 administration, MDA-MB-231 tumors size averaged around ~549 ± 184 mm^3 (280–918 mm^3) in FA-replete mice, and ~559 ± 165 mm^3 (356–961 mm^3) in FA-deficient mice.
Depending on the CAR-T cell dose and how EC17 is administered, tumor-bearing mice receiving FITC-specific CAR-T cells can experience severe CRS and varying degrees of body weight loss ([27], [33], [34]). […] On the days immediately following each EC17 dose, animals were scored and rescue agents such as sodium fluorescein, folic acid and leucovorin were used to mitigate CRS toxicity ([33]). […]

The test system of data set [2] is OV90. Description: EC17 dose response, co-culture with E2-CAR-T cells, LDH specific lysis. Type of data set: cell-based. To be noted: OV90, E/T 1:1, 24 h co-culture. An excerpt:
To investigate EC17 CAM action in vitro, pure EGFRt-sorted CD4 and CD8 CAR-T cells were admixed in a 1:1 ratio and matching mock-transduced T cells were included per experimental design. Other than FR+/- isogenic pairs of AML and osteosarcoma cell lines, we added KB, MDA-MB-231 and OV90 to represent different histological tumor types and FR expression levels. All FR+ target cell lines were subjected to a direct ^3H-FA binding assay to quantitate the number of FR molecules bound/cell ([38]). Prior to co-culture experiments, cryopreserved CAR-T cells were allowed to recover for 2–3 days in T cell culture medium. All effector and target cells were pre-washed with FFRPMI to remove any exogenous FA that could compete against EC17. […]
For an EC17 dose response study, FR+ cancer cell lines (KB, MDA-MB-231, HOS-FRα, THP1-FRβ, OV90) were co-cultured with EGFRt-sorted E2-CAR-T cells at an effector-to-target (E/T) ratio of 1:1 in the presence of EC17 ranging from 0.1 pM to 100 μM in 10-fold increments. After 24 h of co-culture, supernatants were harvested to determine target cell killing by Promega's CytoTox 96® LDH assay kit and expressed as specific lysis (%) normalized to basal levels in the absence of EC17. […] The kinetics of target cell killing (i.e., % specific lysis) were quantified after 16 and 48 h of co-culture and normalized to basal levels in the absence of EC17 at defined E/T ratios. […]

Consider 1 molecule from paper PMC6433934, “Preclinical Evaluation of Bispecific Adaptor Molecule Controlled Folate Receptor CAR-T Cell Therapy With Special Focus on Pediatric Malignancies” (Frontiers in Oncology, 2019).

Usually EC50 stands for the concentration needed to bring the measured effect to its halfway point.

Molecules are shown by their SMILES.

`Nc1nc2ncc(CNc3ccc(C(=O)NC(CCC(=O)NCCNC(=S)Nc4ccc(-c5c6ccc(=O)cc-6oc6cc(O)ccc56)c(C(=O)O)c4)C(=O)O)cc3)nc2c(=O)[nH]1` (stereo not shown) [EC17, FA-(γ)-ethylenediamine-FITC]: in data set [1] (EC17-treated cohorts (SIW 500, 5/50/500, 5/100/1000 nmol/kg), ~10 million E2-CAR-T cells), the cures is on record as 100%. In addition, the “higher IFNγ production in mouse plasma vs CAR-T cells only” value in data set [1] (day 11, ~20 h after previous EC17 dose, ~10 million E2-CAR-T cells) is recorded as ~ 30 x; in data set [1] (day 12, ~42 h after previous EC17 dose, ~10 million E2-CAR-T cells), ~ 10 x. The “persistence of CAR-T cells in mouse blood” value in data set [1] (tumor-bearing animals, ~10 million E2-CAR-T cells plus EC17, last measurement) is recorded as “up to 54 days”. Also, the CRS grade in data set [1] (tumor-bearing, ~10 million E2-CAR-T cells, continued EC17 dosing independent of the regimen, 0–5 scale) was 2-3. In addition, in data set [2] (Homo sapiens, OV-90, curve fitted up to 100 nM), a half-maximal effect (EC50) was put at 0.418 nM. Besides, in data set [2], the Max. lysis came to 15%.
